The values that follow come from patent publication US7910576B2, “Pyrrole derivatives as P2Y12 antagonists” (Sanofi-Aventis, priority 2007, dated 2011).

T1 sequence (Q9H244 whole entry): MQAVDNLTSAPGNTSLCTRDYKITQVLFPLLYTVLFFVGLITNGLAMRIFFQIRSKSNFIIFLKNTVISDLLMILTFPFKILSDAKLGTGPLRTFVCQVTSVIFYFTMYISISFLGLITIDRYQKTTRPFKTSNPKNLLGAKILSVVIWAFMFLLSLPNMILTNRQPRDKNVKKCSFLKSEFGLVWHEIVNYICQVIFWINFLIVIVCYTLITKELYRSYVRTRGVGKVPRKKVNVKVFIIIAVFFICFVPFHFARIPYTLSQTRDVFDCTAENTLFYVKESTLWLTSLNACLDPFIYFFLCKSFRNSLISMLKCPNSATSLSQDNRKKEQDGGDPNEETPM

This assay has as its target T1, human P2Y12 receptor (Homo sapiens, UniProt Q9H244).
T1 construct: expressed in transfected cells; host or cells: Chinese Hamster Ovary (CHO) cells, membrane preparation
Nature of the assay: Human P2Y12 recombinant cell membrane binding assay. The settings on record: competition against 33P 2MeS-ADP; membranes of CHO cells with recombinant human P2Y12 receptor; read-out: inhibition MeSADP binding P2Y12, IC 50. The method, then: Human P2Y12 Recombinant Cell Membrane Binding Assay
The ability of a test compound to bind to the P2Y12 receptor was evaluated in a recombinant cell membrane binding assay. In this competitive binding assay, the test compound competed against a radiolabeled agonist for binding to the P2Y12 receptor, expressed on the cell membrane. Inhibition of binding of the labeled material was measured and correlated to the amount and potency of the test compound. This binding assay is a modification of the procedure described by Takasaki, J. et. al, Mol. Pharmacol., 2001, Vol. 60, pg. 432.
As source of P2Y12, a membrane preparation was prepared from Chinese Hamster Ovary (CHO) cells with recombinant expression of the human P2Y12 receptor according to standard procedures.
To a 96-well microtiterplate the following were added: a) 24 μl of assay buffer (10 mM HEPES, 138 mM NaCl, […] KCl, 12 mM NaHCO3, 1 mM EDTA-Na, 0.1% BSA, pH 7.4) b) 1 μL compound in DMSO c) 50 μL P2Y12 CHO membrane (20 μg/ml) and after 15 min at RT d) 25 μL of 1.61 nM ^33P 2MeS— ADP (Perkin Elmer NEN custom synthesis, specific activity ˜2100 Ci/mmol) made in assay buffer.
After 20 min incubation at RT samples were transferred to 96-well microtiter filterplates (Millipore HTS GF/B), pre-wetted for 20 min with 300 μL of stop buffer (10 mM HEPES, 138 mM NaCl pH 7.4) and then filtered through completely with a Millipore plate vacuum. Next, wells were washed four times with 400 μl/well of stop buffer on a plate vacuum. The plate was disassembled and allowed to air dry overnight with the filter side up over night. The filter plates were snapped into adapter plates and 0.1 mL of Microscint 20 Scintillation Fluid (Perkin Elmer #6013621) was added to each well. The top of the filterplate was sealed with plastic plate covers. The sealed filterplate were incubated 2 hours at room temperature. A Microbeta Scintillation Counter was used to measure counts. The binding of compound is expressed as a % inhibition of specific binding, defined by subtraction of the background with 1 mM ADP. Compounds were diluted as 10 mM DMSO stocks and tested in a four-point, five-fold dilution series run in triplicate beginning at 10 μM, final concentration. Data were analyzed using a four-parameter curve fit with a fixed minimum and maximum experimentally defined as the average positive and negative controls on each plate.
`Cc1[nH]c(-c2ccccc2)cc1C(=O)C(=O)N1CCN(c2cccc(C(F)(F)F)c2)CC1` [Example 1, 1-(2-Methyl-5-phenyl-1H-pyrrol-3-yl)-2-[4-(3-trifluoromethyl-phenyl)-piperazin-1-yl]-ethane-1,2-dione]: the IC50 was 0.5 µM. Turning to `Cc1[nH]c(-c2ccccc2)cc1C(=O)C(=O)N1CCN(c2ccc(Cl)c(C(F)(F)F)c2)CC1` [Example 10, 1-[4-(4-Chloro-3-trifluoromethyl-phenyl)-piperazin-1-yl]-2-(2-methyl-5-phenyl-1H-pyrrol-3-yl)-ethane-1,2-dione], the IC50 amounted to 0.7 µM. Consider `CCOC(=O)c1cccc(N2CCN(C(=O)C(=O)c3cc(-c4ccccc4)[nH]c3C)CC2)c1` [Example 33, 3-{4-[2-(2-Methyl-5-phenyl-1H-pyrrol-3-yl)-2-oxo-acetyl]-piperazin-1-yl}-benzoic acid ethyl ester], for which the IC50 was 0.17 µM. Consider `Cc1[nH]c(-c2ccccc2)cc1C(=O)C(=O)N1CCC(C(=O)c2ccc(Br)cc2)CC1` [Example 51, 1-[4-(4-Bromo-benzoyl)-piperidin-1-yl]-2-(2-methyl-5-phenyl-1H-pyrrol-3-yl)-ethane-1,2-dione], for which the IC50 is 0.71 µM. Take `Cc1[nH]c(-c2ccccc2)cc1C(=O)C(=O)N1CCC(C(=O)c2cccc(Cl)c2)CC1` [Example 52, 1-[4-(3-Chloro-benzoyl)-piperidin-1-yl]-2-(2-methyl-5-phenyl-1H-pyrrol-3-yl)-ethane-1,2-dione]: the IC50 stood at 0.52 µM.

For the molecule `Cc1[nH]c(-c2ccccc2)c(/C=C/C(=O)O)c1C(=O)C(=O)N1CCN(c2cccc(C(F)(F)F)c2)CC1` [Example 71, (E)-3-(5-Methyl-4-{2-oxo-2-[4-(3-trifluoromethyl-phenyl)-piperazin-1-yl]-acetyl}-2-phenyl-1H-pyrrol-3-yl)-acrylic acid], the IC50 worked out at 0.03 µM.
